Read-outs that look alike come from different tables or passages of the source. Square brackets hold non-standard residues; d marks the D form. Peptide text beside a SMILES is read from it. Cit = NC(=O)NCCC[C@H](N)C(=O)O
How the values were obtained:
HLA-DRB1*04:01 = biological target: T1, HLA-DRB1*04:01 (Homo sapiens, UniProt P01903+P01911, A100K/A169T/F76Y/I96L/K127E/L162R/M171V/N62H/P40V/Q125Y/R42H/S133A/S149N/S66Y/V115G/V209L/W38E); experiment: HLA class II peptide binding, inhibition of radiolabeled peptide binding to purified MHC
T1 construct: EBV transformed homozygous cell lines were used as sources of MHC molecules; endogenous in cells; host or cells: EBV transformed homozygous cell lines

HLA-DRB1*01:01 = biological target: T2, HLA-DRB1*01:01 (Homo sapiens, UniProt P01903+P01911, A100R/D57E/F55L/F60I/F76Y/I96L/L162R/M171V/P40L/Q125E/R42F/V115G/Y59C); experiment: as above
T2 construct: EBV transformed homozygous cell lines were used as sources of MHC molecules; endogenous in cells; host or cells: EBV transformed homozygous cell lines

[1] = citrullinated 15-mer (X), purified MHC, inhibition of radiolabeled peptide binding, dash = IC50 >40,000 nM, read-out: DRB1*04:01 binding capacity, Cit peptide (IC50 nM)
[2] = citrullinated 15-mer (X), purified MHC, inhibition of radiolabeled peptide binding, dash = IC50 >40,000 nM, read-out: DRB1*01:01 binding capacity, Cit peptide (IC50 nM)
[3] = citrullinated peptide as listed (X at Cit position), read-out: DRB1*04:01 binding capacity Cit peptide (IC50 nM)
[4] = citrullinated peptide as listed (X at Cit position), read-out: DRB1*01:01 binding capacity Cit peptide (IC50 nM)
[5] = citrullinated 15-mer peptide (X = citrulline), purified HLA-DRB1*04:01, read-out: DRB1*04:01 binding capacity, Cit peptide (IC50 nM)
[6] = citrullinated 15-mer peptide (X = citrulline), purified HLA-DRB1*01:01, read-out: DRB1*01:01 binding capacity, Cit peptide (IC50 nM)

| SMILES | IC50 (HLA-DRB1*04:01; [1]) [nM] | IC50 (HLA-DRB1*01:01; [2]) [nM] | other results |
| --- | --- | --- | --- |
| CC(C)C[C@H](NC(=O)[C@H](CC(C)C)NC(=O)[C@H](CCCNC(=N)N)NC(=O)[C@@H](NC(=O)CNC(=O)[C@@H]1CCCN1C(=O)[C@@H](NC(=O)[C@H](CO)NC(=O)[C@H](CO)NC(=O)[C@H](CCCNC(=N)N)NC(=O)[C@H](CC(C)C)NC(=O)[C@H](CCCNC(N)=O)NC(=O)[C@@H](NC(=O)[C@H](C)NC(=O)[C@@H](N)CO)C(C)C)C(C)C)C(C)C)C(=O)O [SAVXLRSSVPGVRLL] (H-SAV[Cit]LRSSVPGVRLL-OH) | 1050 | 19 |  |
| CC(C)C[C@H](NC(=O)[C@H](C)NC(=O)[C@H](C)NC(=O)[C@@H](NC(=O)[C@H](CC(C)C)NC(=O)[C@H](CC(=O)O)NC(=O)[C@@H]1CCCN1C(=O)[C@H](CCCCN)NC(=O)[C@@H](N)CO)[C@@H](C)O)C(=O)N[C@@H](CCCNC(=N)N)C(=O)N[C@@H](CC(=O)O)C(=O)N[C@H](C(=O)N[C@@H](CCCNC(N)=O)C(=O)N[C@@H](CCC(N)=O)C(=O)N[C@@H](CCC(N)=O)C(=O)O)C(C)C [SKPDLTAALRDVXQQ] (H-SKPDLTAALRDV[Cit]QQ-OH) | 29700 | 5590 |  |
| CC(C)C[C@H](NC(=O)[C@H](C)NC(=O)[C@H](C)NC(=O)[C@@H](NC(=O)[C@H](CC(C)C)NC(=O)[C@H](CC(=O)O)NC(=O)[C@@H]1CCCN1C(=O)[C@H](CCCCN)NC(=O)[C@@H](N)CO)[C@@H](C)O)C(=O)N[C@@H](CCCNC(N)=O)C(=O)N[C@@H](CC(=O)O)C(=O)N[C@H](C(=O)N[C@@H](CCCNC(=N)N)C(=O)N[C@@H](CCC(N)=O)C(=O)N[C@@H](CCC(N)=O)C(=O)O)C(C)C [SKPDLTAALXDVRQQ] (H-SKPDLTAAL[Cit]DVRQQ-OH) | 30300 | 1370 |  |
| CC[C@H](C)[C@H](NC(=O)[C@H](CCC(N)=O)NC(=O)[C@H](CC(N)=O)NC(=O)[C@H](CC(N)=O)NC(=O)[C@H](CC(C)C)NC(=O)[C@@H](N)CO)C(=O)N[C@@H](CCC(=O)O)C(=O)N[C@@H](CO)C(=O)N[C@H](C(=O)N[C@@H](CCCNC(N)=O)C(=O)N[C@@H](CO)C(=O)N1CCC[C@H]1C(=O)N[C@@H](CCC(=O)O)C(=O)NCC(=O)N[C@@H](CO)C(=O)O)[C@@H](C)CC [SLNNQIESIXSPEGS] (H-SLNNQIESI[Cit]SPEGS-OH) |  |  | IC50 (HLA-DRB1*04:01; [3]): 18 nM; IC50 (HLA-DRB1*01:01; [4]): 6.5 nM |
| CC(C)C[C@H](NC(=O)[C@@H](N)CO)C(=O)N[C@@H](Cc1ccc(O)cc1)C(=O)N[C@@H](C)C(=O)N[C@@H](CO)C(=O)N[C@@H](CO)C(=O)N1CCC[C@H]1C(=O)NCC(=O)NCC(=O)N[C@H](C(=O)N[C@@H](Cc1ccc(O)cc1)C(=O)N[C@@H](C)C(=O)N[C@H](C(=O)N[C@@H](CCCNC(N)=O)C(=O)N[C@@H](CO)C(=O)O)[C@@H](C)O)C(C)C [SLYASSPGGVYATXS] | 1280 | 16 |  |
| CC[C@H](C)[C@H](NC(=O)[C@H](CCC(=O)O)NC(=O)[C@@H](NC(=O)[C@H](CC(=O)O)NC(=O)[C@H](CC(N)=O)NC(=O)[C@@H](N)CO)C(C)C)C(=O)N[C@@H](CCCNC(=N)N)C(=O)N[C@@H](C)C(=O)N[C@@H](CCC(=O)O)C(=O)NCC(=O)N[C@@H](CC(N)=O)C(=O)N[C@@H](CO)C(=O)N[C@@H](CCCNC(N)=O)C(=O)N[C@@H](Cc1ccccc1)C(=O)N[C@H](C(=O)O)[C@@H](C)O [SNDVEIRAEGNSXFT] (H-SNDVEIRAEGNS[Cit]FT-OH) |  |  | IC50 (HLA-DRB1*04:01; [3]): 178 nM; IC50 (HLA-DRB1*01:01; [4]): 92 nM |
| CC[C@H](C)[C@H](NC(=O)[C@H](CCC(=O)O)NC(=O)[C@@H](NC(=O)[C@H](CC(=O)O)NC(=O)[C@H](CC(N)=O)NC(=O)[C@@H](N)CO)C(C)C)C(=O)N[C@@H](CCCNC(N)=O)C(=O)N[C@@H](C)C(=O)N[C@@H](CCC(=O)O)C(=O)NCC(=O)N[C@@H](CC(N)=O)C(=O)N[C@@H](CO)C(=O)N[C@@H](CCCNC(=N)N)C(=O)N[C@@H](Cc1ccccc1)C(=O)N[C@H](C(=O)O)[C@@H](C)O [SNDVEIXAEGNSRFT] (H-SNDVEI[Cit]AEGNSRFT-OH) |  |  | IC50 (HLA-DRB1*04:01; [3]): 929 nM; IC50 (HLA-DRB1*01:01; [4]): 1520 nM |
| CC(C)C[C@H](NC(=O)[C@H](CCCNC(N)=O)NC(=O)[C@@H](NC(=O)[C@H](C)NC(=O)[C@H](CO)NC(=O)[C@H](CO)NC(=O)[C@H](CCCNC(=N)N)NC(=O)[C@@H](NC(=O)[C@H](C)NC(=O)[C@H](Cc1ccc(O)cc1)NC(=O)[C@@H](NC(=O)CNC(=O)CNC(=O)[C@@H]1CCCN1C(=O)[C@@H](N)CO)C(C)C)[C@@H](C)O)C(C)C)C(=O)O [SPGGVYATRSSAVXL] (H-SPGGVYATRSSAV[Cit]L-OH) | 497 | 7.6 |  |
| CC(C)C[C@H](NC(=O)[C@H](CCCNC(=N)N)NC(=O)[C@@H](NC(=O)[C@H](C)NC(=O)[C@H](CO)NC(=O)[C@H](CO)NC(=O)[C@H](CCCNC(N)=O)NC(=O)[C@@H](NC(=O)[C@H](C)NC(=O)[C@H](Cc1ccc(O)cc1)NC(=O)[C@@H](NC(=O)CNC(=O)CNC(=O)[C@@H]1CCCN1C(=O)[C@@H](N)CO)C(C)C)[C@@H](C)O)C(C)C)C(=O)O [SPGGVYATXSSAVRL] (H-SPGGVYAT[Cit]SSAVRL-OH) | 329 | 6.6 |  |
| CC(C)C[C@H](NC(=O)[C@H](CO)NC(=O)[C@H](Cc1ccc(O)cc1)NC(=O)[C@@H](NC(=O)[C@H](CCCNC(N)=O)NC(=O)[C@@H](NC(=O)[C@H](CO)NC(=O)[C@@H](NC(=O)[C@@H](NC(=O)[C@@H](NC(=O)[C@H](Cc1ccc(O)cc1)NC(=O)[C@H](CO)NC(=O)[C@H](CCCNC(=N)N)NC(=O)[C@H](CO)NC(=O)[C@@H](N)CO)C(C)C)[C@@H](C)O)[C@@H](C)O)[C@@H](C)O)[C@@H](C)O)C(=O)O [SSRSYVTTSTXTYSL] (H-SSRSYVTTST[Cit]TYSL-OH) | 109 | 85 |  |
| CC(C)C[C@H](NC(=O)[C@H](CO)NC(=O)[C@H](Cc1ccc(O)cc1)NC(=O)[C@@H](NC(=O)[C@H](CCCNC(=N)N)NC(=O)[C@@H](NC(=O)[C@H](CO)NC(=O)[C@@H](NC(=O)[C@@H](NC(=O)[C@@H](NC(=O)[C@H](Cc1ccc(O)cc1)NC(=O)[C@H](CO)NC(=O)[C@H](CCCNC(N)=O)NC(=O)[C@H](CO)NC(=O)[C@@H](N)CO)C(C)C)[C@@H](C)O)[C@@H](C)O)[C@@H](C)O)[C@@H](C)O)C(=O)O [SSXSYVTTSTRTYSL] (H-SS[Cit]SYVTTSTRTYSL-OH) | 357 | 93 |  |
| CC(C)C[C@H](NC(=O)[C@H](CO)NC(=O)[C@H](CCC(N)=O)NC(=O)[C@@H](NC(=O)[C@H](CCC(N)=O)NC(=O)[C@H](CCCNC(N)=O)NC(=O)[C@H](CCCNC(=N)N)NC(=O)[C@H](Cc1ccc(O)cc1)NC(=O)[C@H](CCC(=O)O)NC(=O)[C@@H](NC(=O)[C@@H](N)CO)[C@@H](C)O)C(C)C)C(=O)N[C@H](C(=O)N[C@@H](CS)C(=O)N[C@@H](CCC(=O)O)C(=O)N[C@H](C(=O)O)C(C)C)[C@@H](C)O [STEYRXQVQSLTCEV] (H-STEYR[Cit]QVQSLTCEV-OH) |  |  | IC50 (HLA-DRB1*04:01; [5]): 860 nM; IC50 (HLA-DRB1*01:01; [6]): 158 nM |
| CC(C)C[C@H](NC(=O)[C@H](CO)NC(=O)[C@H](CCC(N)=O)NC(=O)[C@@H](NC(=O)[C@H](CCC(N)=O)NC(=O)[C@H](CCCNC(=N)N)NC(=O)[C@H](CCCNC(N)=O)NC(=O)[C@H](Cc1ccc(O)cc1)NC(=O)[C@H](CCC(=O)O)NC(=O)[C@@H](NC(=O)[C@@H](N)CO)[C@@H](C)O)C(C)C)C(=O)N[C@H](C(=O)N[C@@H](CS)C(=O)N[C@@H](CCC(=O)O)C(=O)N[C@H](C(=O)O)C(C)C)[C@@H](C)O [STEYXRQVQSLTCEV] (H-STEY[Cit]RQVQSLTCEV-OH) |  |  | IC50 (HLA-DRB1*04:01; [5]): 1510 nM; IC50 (HLA-DRB1*01:01; [6]): 97 nM |
| CC[C@H](C)[C@H](NC(=O)[C@H](CC(N)=O)NC(=O)[C@H](CCC(N)=O)NC(=O)[C@H](CO)NC(=O)CNC(=O)[C@H](CCC(=O)O)NC(=O)[C@@H](NC(=O)[C@H](CO)NC(=O)[C@H](CC(C)C)NC(=O)[C@H](CC(C)C)NC(=O)[C@H](CCCNC(N)=O)NC(=O)[C@H](CC(C)C)NC(=O)[C@H](Cc1ccccc1)NC(=O)[C@@H](N)[C@@H](C)O)[C@@H](C)O)C(=O)N[C@H](C(=O)O)[C@@H](C)O [TFLXLLSTEGSQNIT] (H-TFL[Cit]LLSTEGSQNIT-OH) |  |  | IC50 (HLA-DRB1*04:01; [3]): 55 nM; IC50 (HLA-DRB1*01:01; [4]): 5.6 nM |

Now from value to compound, other results behind:

| IC50 (HLA-DRB1*04:01; [1]) [nM] | IC50 (HLA-DRB1*01:01; [2]) [nM] | SMILES | other results |
| --- | --- | --- | --- |
| 7160 | 896 | CC(C)C[C@H](NC(=O)[C@H](C)NC(=O)[C@H](C)NC(=O)[C@@H](N)[C@@H](C)O)C(=O)N[C@@H](CCCNC(=N)N)C(=O)N[C@@H](CC(=O)O)C(=O)N[C@H](C(=O)N[C@@H](CCCNC(N)=O)C(=O)N[C@@H](CCC(N)=O)C(=O)N[C@@H](CCC(N)=O)C(=O)N[C@@H](Cc1ccc(O)cc1)C(=O)N[C@@H](CCC(=O)O)C(=O)N[C@@H](CO)C(=O)N[C@H](C(=O)N[C@@H](C)C(=O)O)C(C)C)C(C)C [TAALRDVXQQYESVA] (H-TAALRDV[Cit]QQYESVA-OH) |  |
| 8760 | 956 | CC(C)C[C@H](NC(=O)[C@H](C)NC(=O)[C@H](C)NC(=O)[C@@H](N)[C@@H](C)O)C(=O)N[C@@H](CCCNC(N)=O)C(=O)N[C@@H](CC(=O)O)C(=O)N[C@H](C(=O)N[C@@H](CCCNC(=N)N)C(=O)N[C@@H](CCC(N)=O)C(=O)N[C@@H](CCC(N)=O)C(=O)N[C@@H](Cc1ccc(O)cc1)C(=O)N[C@@H](CCC(=O)O)C(=O)N[C@@H](CO)C(=O)N[C@H](C(=O)N[C@@H](C)C(=O)O)C(C)C)C(C)C [TAALXDVRQQYESVA] (H-TAAL[Cit]DVRQQYESVA-OH) |  |
